Test results from US7034035B2, “Fungicidal mono-, bi-, and tri-cycloheteroalkyl amides and their compositions, methods of use and preparation” (priority 1999, dated 2006).

Tests used:
Ustilago maydis (USTIMA) = experiment: microbe, parasite or virus in culture; type: cell-based
[1] = test system: Rhizoctonia solani (RHIZSO); experiment: microbe, parasite or virus in culture; type: cell-based
Note: test concentration or dose not given here.

Row | Compound | USTIMA in vitro Growth Inhibition (Ustilago maydis (USTIMA)) | RHIZSO in vitro Growth Inhibition [1]
1 | O=C(NCc1cccc2ccccc12)c1ncccc1O [Compound 228] | − (key: +: at least 80% growth inhibition; −: less than 80% growth inhibition) | − (key: +: at least 80% growth inhibition; −: less than 80% growth inhibition)
2 | COc1ccnc(C(=O)NC2CCC[C@H]3[C@H]4CC[C@H](C4)[C@@H]23)c1O (some centres unmarked) [Compound 291] | − (key: +: at least 80% growth inhibition; −: less than 80% growth inhibition) | + (key: +: at least 80% growth inhibition; −: less than 80% growth inhibition)
3 | COc1ccnc(C(=O)NC2CCC[C@H]3CC(CCC=C(C)C)=CC[C@@H]23)c1O (some centres unmarked) [Compound 286] | − (key: +: at least 80% growth inhibition; −: less than 80% growth inhibition) | + (key: +: at least 80% growth inhibition; −: less than 80% growth inhibition)
4 | COc1ccnc(C(=O)NC2CC(C)(C)CC(C)(C)C2)c1O [Compound 250] | − (key: +: at least 80% growth inhibition; −: less than 80% growth inhibition) | − (key: +: at least 80% growth inhibition; −: less than 80% growth inhibition)
5 | CC(=O)OC1CCC(NC(=O)c2ncccc2O)CC1 (centres unmarked) [Compound 209] | − (key: +: at least 80% growth inhibition; −: less than 80% growth inhibition) | − (key: +: at least 80% growth inhibition; −: less than 80% growth inhibition)
6 | COc1ccnc(C(=O)NC2CCCC2=O)c1O (centres unmarked) [Compound 249] | − (key: +: at least 80% growth inhibition; −: less than 80% growth inhibition) | − (key: +: at least 80% growth inhibition; −: less than 80% growth inhibition)
7 | COc1ccnc(C(=O)NC2CC(C)(C)CC(C)(C(=O)c3ccccc3)C2)c1O (centres unmarked) [Compound 260] | − (key: +: at least 80% growth inhibition; −: less than 80% growth inhibition) | − (key: +: at least 80% growth inhibition; −: less than 80% growth inhibition)
8 | Cc1ccnc(C(=O)Nc2ccc(Oc3cccc(C(F)(F)F)c3)cc2)c1O [Compound 238] | − (key: +: at least 80% growth inhibition; −: less than 80% growth inhibition) | − (key: +: at least 80% growth inhibition; −: less than 80% growth inhibition)
9 | COc1ccnc(C(=O)NC2CC(C)(C)C(OC(=O)CC(C)C)C(C)(C)C2)c1O (centres unmarked) [Compound 267] | + (key: +: at least 80% growth inhibition; −: less than 80% growth inhibition) | − (key: +: at least 80% growth inhibition; −: less than 80% growth inhibition)
10 | COc1ccnc(C(=O)N[C@@H]2CC3CC2C2C(=O)N(CC(C)C)C(=O)C32)c1O (some centres unmarked) [Compound 303] | − (key: +: at least 80% growth inhibition; −: less than 80% growth inhibition) | − (key: +: at least 80% growth inhibition; −: less than 80% growth inhibition)
11 | COc1ccnc(C(=O)N[C@H]2CC3OC2[C@H](C)[C@@H](OCc2ccccc2)[C@H]3C)c1O (some centres unmarked) [Compound 321] | − (key: +: at least 80% growth inhibition; −: less than 80% growth inhibition) | − (key: +: at least 80% growth inhibition; −: less than 80% growth inhibition)
12 | O=C(NCC1CCCCC1)c1ncccc1O [Compound 202] | − (key: +: at least 80% growth inhibition; −: less than 80% growth inhibition) | − (key: +: at least 80% growth inhibition; −: less than 80% growth inhibition)
13 | O=C(Nc1cccc(C(F)(F)F)c1)c1ncccc1O [Compound 214] | − (key: +: at least 80% growth inhibition; −: less than 80% growth inhibition) | − (key: +: at least 80% growth inhibition; −: less than 80% growth inhibition)
14 | COc1ccnc(C(=O)N[C@@H]2CC3CC2[C@@H](c2ccccc2)[C@@H]3C(=O)OC(C)C)c1O (some centres unmarked) [Compound 300] | − (key: +: at least 80% growth inhibition; −: less than 80% growth inhibition) | + (key: +: at least 80% growth inhibition; −: less than 80% growth inhibition)
15 | COc1ccnc(C(=O)NC2c3ccccc3CC2(C)C)c1O (centres unmarked) [Compound 284] | − (key: +: at least 80% growth inhibition; −: less than 80% growth inhibition) | − (key: +: at least 80% growth inhibition; −: less than 80% growth inhibition)
16 | O=C(NCc1ccc(Cl)c(Cl)c1)c1ncccc1O [Compound 221] | − (key: +: at least 80% growth inhibition; −: less than 80% growth inhibition) | − (key: +: at least 80% growth inhibition; −: less than 80% growth inhibition)
17 | COc1cccc(CNC(=O)c2ncccc2O)c1 [Compound 225] | − (key: +: at least 80% growth inhibition; −: less than 80% growth inhibition) | − (key: +: at least 80% growth inhibition; −: less than 80% growth inhibition)
18 | COc1ccnc(C(=O)NC2CC(C)(C)C(OC)C(C)(C)C2)c1O (centres unmarked) [Compound 265] | − (key: +: at least 80% growth inhibition; −: less than 80% growth inhibition) | − (key: +: at least 80% growth inhibition; −: less than 80% growth inhibition)
19 | COc1ccnc(C(=O)NC2CC3OC2C(C)C(OC(=O)C(C)C)C3C)c1O (centres unmarked) [Compound 320] | − (key: +: at least 80% growth inhibition; −: less than 80% growth inhibition) | − (key: +: at least 80% growth inhibition; −: less than 80% growth inhibition)
20 | COc1ccnc(C(=O)N[C@@H](CO)C(=O)O[C@@H](C)[C@H](OC(=O)C(C)C)[C@@H](Cc2ccccc2)C(=O)O)c1O [Compound 341] | − (key: +: at least 80% growth inhibition; −: less than 80% growth inhibition) | − (key: +: at least 80% growth inhibition; −: less than 80% growth inhibition)
21 | O=C(OC1CCC(NC(=O)c2ncccc2O)CC1)c1ccccc1 (centres unmarked) [Compound 211] | − (key: +: at least 80% growth inhibition; −: less than 80% growth inhibition) | − (key: +: at least 80% growth inhibition; −: less than 80% growth inhibition)
22 | COc1cc(NC(=O)c2ncccc2O)cc(OC)c1 [Compound 216] | − (key: +: at least 80% growth inhibition; −: less than 80% growth inhibition) | − (key: +: at least 80% growth inhibition; −: less than 80% growth inhibition)
23 | O=C(Nc1nccs1)c1ncccc1O [Compound 235] | + (key: +: at least 80% growth inhibition; −: less than 80% growth inhibition) | + (key: +: at least 80% growth inhibition; −: less than 80% growth inhibition)
24 | C[C@H](NC(=O)c1ncccc1O)c1cccc2ccccc12 [Compound 232] | − (key: +: at least 80% growth inhibition; −: less than 80% growth inhibition) | − (key: +: at least 80% growth inhibition; −: less than 80% growth inhibition)
25 | COc1ccnc(C(=O)NC2CC(C)(C)C=CC(C)C2C)c1O (centres unmarked) [Compound 279] | − (key: +: at least 80% growth inhibition; −: less than 80% growth inhibition) | − (key: +: at least 80% growth inhibition; −: less than 80% growth inhibition)
